Legend:
RAW 264.7 cells [1] = experiment: MTT viability assay; assay type: cell-based, mouse; conditions: for cell viability: 50 µM of single cannabinoid (FIG. 1)
Method: (§1) Cell lines were cultured according to standard mammalian tissue culture protocols and sterile technique. Adherent human epithelial endometriosis 12Z and mouse monocytes RAW 264.7 cell lines were cultured in high glucose Dulbecco’s Modified Eagle Medium (DMEM) supplemented with 1% sodium pyruvate. Human monocytes THP-1 cell line were cultured in RPMI medium 1640. All media was supplemented with 10% fetal bovine serum, streptomycin […], penicillin (100 U/ml) and Nystatin (12.5 U/ml). Cells were incubated in 5% CO2 at 37° C. All tissue culture cells were maintained in 75 cm^2 cell culture treated flask (Eppendorf) and all the media and supplements were obtained from Biological Industries. Treatment were performed by plating cells in a 96 micro well delta surface plates (Eppendorf) in a starting confluence of 1 × 10^4 cells/well.
The viability of the cells following treatment was determined using a commercially available MTT assay kit (Abcam, ab 146345) and performed according to manufacturer’s instructions. Briefly, cells were seeded in a 96-well plate at a density of 1 × 10^4 cells/well (n=4) in 100 µl cell specific media. After overnight plating, cells were exposed to varying concentrations of cannabis samples in 100 µl of specific media. Then, plates were incubated in a humidified atmosphere containing 5% CO2 in air at 37° C. for 24 hours. According to the MTT standard protocol, after 24 h treatment, the media was removed, and all cells were incubated with serum-free media containing 0.5 mg/ml MTT for 4 hours at the incubator. The MTT purple crystals formed by the viable cells were dissolved using isopropanol containing 0.04 mol/L HCl. The quantification was determined by measuring the optical density at 570 nm in a spectrophotometer reader (Spark, Tecan). Results were presented as proportional viability (%) by comparing between treated and untreated groups. Cytotoxic potential of an extract was determined according to the following criteria: Non-cytotoxic -Viability is ≥ 70% of vehicle control; Cytotoxic - Viability is reduced to less than 70% of vehicle control.

RAW 264.7 cells [2] = experiment: Nitric oxide detection assay (Griess) in LPS-stimulated cells; assay type: cell-based, mouse; conditions: for nitric oxide production: 50 µM of single cannabinoid (FIG. 1); for nitric oxide production while minimally affecting cell viability: lower dose, 25 µM, compared with effect at 50 µM (FIG. 1)
Method: as §1
RAW 264.7 cells were seeded in a 96-well plate at a density of 1 × 10^4 cells/well (n=4) in 100 µl cell specific media (DMEM high glucose supplemented with 10% FBS, 1% PSN and 1% Sodium pyruvate). After 24 hours, cells were treated with varying concentrations of cannabis samples using specific media containing 5% FBS. After 1 hour, treated and untreated cells, were stimulated by Lipopolysaccharides (LPS) at a final concentration of 1 µg/ml. Cells supernatants were harvest after 24 h for nitric oxide radical (NO•) assay by addition of 50 µl of the supernatant to an equal volume of Griess reagent (1% sulfanilamide, 0.1% naphthalene diamine and 2% H3PO4). After 10 min of incubation, the resultant color was measured at 540 nm. Results were presented as proportional (%) by comparing between treated and untreated groups. Anti-inflammatory potential of an extract in preventing Nitric oxide production was determined by the ratio between nitric oxide and cell viability values: Ratio < 0.5 = High effect; Ratio between 0.5-0.7 = Moderate effect; Ratio […] = Low effect; and Ratio > 1 = No effect.

## O=c1cc(-c2ccc(O)cc2)oc2cc(O)cc(O)c12 [Apigenin, apigenin]
RAW 264.7 cells [1]; mouse, 24 h, 50 µM
  cell viability (exception to 'no substantial effect on cell viability'): excluding 50 µM of Apigenin

## CCCCCc1cc(O)c2c(c1)OC(C)(CCC=C(C)C)C=C2 (stereo not drawn) [CBC, cannabichromene]
RAW 264.7 cells [2]
  nitric oxide production: reduced nitric oxide production
RAW 264.7 cells [1]
  cell viability: minimally affecting cell viability or not affecting cell viability at all

## CCCCCc1cc2c(c(O)c1C(=O)O)C=CC(C)(CCC=C(C)C)O2 (stereo not drawn) [CBCA, cannabichromenic acid]
RAW 264.7 cells [2]
  nitric oxide production: reduced nitric oxide production
  nitric oxide production while minimally affecting cell viability: comparable effect
RAW 264.7 cells [1]
  cell viability: minimally affecting cell viability or not affecting cell viability at all

## CCCCCc1cc(O)c(C/C=C(\C)CCC=C(C)C)c(O)c1 [CBG, cannabigerol]
RAW 264.7 cells [2]
  nitric oxide production: reduced nitric oxide production

## CCCCCc1cc(O)c2c(c1)OC(C)(C)c1ccc(C)cc1-2 [CBN, cannabinol]
RAW 264.7 cells [2]
  nitric oxide production: reduced nitric oxide production
RAW 264.7 cells [1]
  cell viability: minimally affecting cell viability or not affecting cell viability at all

## CCCCCc1cc2c(c(O)c1C(=O)O)-c1cc(C)ccc1C(C)(C)O2 [CBNA, cannabinolic acid]
RAW 264.7 cells [2]
  nitric oxide production: reduced nitric oxide production
  nitric oxide production while minimally affecting cell viability: comparable effect
RAW 264.7 cells [1]
  cell viability: minimally affecting cell viability or not affecting cell viability at all

## CCCCCc1cc2c(c(O)c1C(=O)O)[C@@H]1C=C(C)CC[C@H]1C(C)(C)O2 [THCA, tetrahydrocannabinolic acid]
RAW 264.7 cells [2]
  nitric oxide production: reduced nitric oxide production
RAW 264.7 cells [1]
  cell viability: minimally affecting cell viability or not affecting cell viability at all

## CCCc1cc(O)c2c(c1)OC(C)(C)[C@@H]1CCC(C)=C[C@@H]21 [THCV, tetrahydrocannabivarin]
RAW 264.7 cells [2]
  nitric oxide production: reduced nitric oxide production
RAW 264.7 cells [1]
  cell viability: minimally affecting cell viability or not affecting cell viability at all

## CCCc1cc2c(c(O)c1C(=O)O)[C@@H]1C=C(C)CC[C@H]1C(C)(C)O2 [THCVA, tetrahydrocannabivarinic acid]
RAW 264.7 cells [2]
  nitric oxide production: reduced nitric oxide production
RAW 264.7 cells [1]
  cell viability: minimally affecting cell viability or not affecting cell viability at all

From US20230201157A1, “COMPOSITIONS OF CANNABINOIDS AND METHODS OF USING SAME” (ASANA BIO GROUP LTD., priority 2020, published 2023)
